From US10246455B2, “Histone deacetylase inhibitors” (Taipei Medical University, priority 2014, dated 2019)

What was measured:
[1] = tested on: PC3 prostate cancer cells; test: Two dimensional cell growth inhibitory assay (MTT): PC3; conditions: Homo sapiens
Description: For the two dimensional assay, cancel cells in the logarithmic phase were cultured in complete medium in 96-well plates at 37° C. with 5% CO2 for overnight incubation, and treated with various concentrations of test compounds for three generative times. Cells were then incubated with a serum free medium containing 3-(4,5-dimethylthiazol-2-yl)-2,5-diphenyltetrazolium bromide (MTT) at a final concentration of 0.5 mg/mM for four hours. MTT was converted to formazan by metabolically viable cells. Formazan was then solublized in 50% DMF solution containing 20% SDS at 37° C. overnight. Absorbance was measured at 570 nm using a spectramax M5 microplate reader (Molecular Devices, UK).

[2] = tested on: PC3 prostate cancer cells; test: Three dimensional cell growth inhibitory assay (cellular spheres, MTT, microscopy): PC3; assay type: cell-based, human; conditions: Homo sapiens
Description: For the three dimensional assay, cells in the logarithmic phase were cultured in 50% Matrigel-containing complete medium in 96-well plates at 37° C. with 5% CO2 for five days incubation, and treated with appropriate concentrations of test compounds for three generative times. Images of spheroids were taken under a microscope, and spheroid cell survival was determined by MTT assays.
The cells (in the 2D culture) and the cellular spheres (in the 3D culture) were treated with test compounds for 72 hours, and then subjected to the MTT colorimetric assay. Each value represents the mean of three independent experiments. Cellular spheres formed in semi-solid and drug effect on cellular spheres were examined using phase-contrast light microscopy.
More specifically, cellular spheres formed in semi-solid and drug effect on cellular spheres were examined using phase-contrast light microscopy. 3D structures of cells were analyzed using 4× magnification, 10× magnification, and 20× magnification.

[3] = tested on: KB cell line (oral carcinoma); test: IC50 in human cancer cell lines (inhibiting HDAC): KB; conditions: Homo sapiens, read-out: IC50, inhibiting HDAC in human cancer cell lines, KB, oral carcinoma
KB-VIN10 (KB resistant) = test: IC50 against human cancer cell lines: KB-VIN10; conditions: read-out: IC50 ± SD against human cancer cell lines; KB-VIN10, KB resistant
[4] = tested on: A549 (non-small-cell lung carcinoma); test: IC50 in human cancer cell lines (inhibiting HDAC): A549; conditions: read-out: IC50, inhibiting HDAC in human cancer cell lines; A549, non-small-cell lung carcinoma
C6 glioma cell line = test: Cell death in C6 glioma in vitro (LDH assay); assay type: cell-based; conditions: rat C6 glioma, 30 uM, after 3 days
Description: Cell death was analyzed by a lactate dehydrogenase (LDH) assay. The culture medium was centrifuged after the experiment and the activity of LDH released into culture media was detected with a LDH cytotoxicity detection kit (Roche). The percentage of cytotoxicity was determined by the equation: [(Experimental group−Control group)/(Triton-100-treated group (100% maximal death)−Control group)]×100%.

[5] = read-out: IC50 value 2D Culture
[6] = Table 6, cell line not given, read-out: IC50 value 3D Culture

| IC50 [3] | melting point | Structure (SMILES) | other results |
| --- | --- | --- | --- |
|  |  | COc1cccc2c1C(=O)c1c(O)c3c(c(O)c1C2=O)C[C@@](O)(C(=O)CO)C[C@@H]3O[C@H]1C[C@H](N)[C@H](O)[C@H](C)O1 [Adriamycin] | IC50 ([1]; read-out: 2D Culture): 70 ± 30 nM; IC50 [1, 5]: 70 ± 30 nM; IC50 [2, 6]: 720 ± 40 nM; IC50 ([2]; read-out: 3D Culture): 720 ± 40 nM |
| < 6000 nM | 188 to 191 °C | O=C(/C=C/c1cccc(S(=O)(=O)n2ccc3ccccc32)c1)NO [Compound 1, (E)-3-(3-(1H-indol-1-ylsulfonyl)phenyl)-N-hydroxyacrylamide] |  |
| < 6000 nM | 207 to 209 °C | O=C(/C=C/c1cccc(S(=O)(=O)N2CCc3ccccc32)c1)NO [Compound 2, (E)-N-hydroxy-3-(3-(indolin-1-ylsulfonyl)phenyl)acrylamide] |  |
| < 6000 nM |  | O=C(/C=C/c1cccc(S(=O)(=O)n2ccc3cncnc32)c1)NO [Compound 4, (E)-3-(3-((7H-Pyrrolo[2,3-d]pyrimidin-7-yl)sulfonyl)phenyl)-N-hydroxyacrylamide] |  |
|  | 148 to 150 °C | O=C(/C=C/c1cccc(S(=O)(=O)n2ccc3ncccc32)c1)NO [Compound 5, (E)-3-(3-(1H-Pyrrolo[3,2-b]pyridin-1-ylsulfonyl)phenyl)-N-hydroxyacrylamide] |  |
|  | 128 to 129 °C | O=C(/C=C/c1cccc(S(=O)(=O)n2ccc3ccncc32)c1)NO [Compound 6, (E)-3-(3-(1H-Pyrrolo[2,3-c]pyridin-1-ylsulfonyl)phenyl)-N-hydroxyacrylamide] |  |
| < 6000 nM |  | COc1ccc(S(=O)(=O)N2CCc3cc(/C=C/C(=O)Nc4ccccc4N)cnc32)cc1 [Compound 6a, (E)-N-(2-aminophenyl)-3-(1-(4-methoxyphenylsulfonyl)-2,3-dihydro-1H-pyrrolo[2,3-b]pyridin-5-yl)acrylamide] |  |
| < 6000 nM | 228 to 230 °C | O=C(/C=C/c1cccc(S(=O)(=O)N2CCc3cccnc32)c1)NO [Compound 8, (E)-3-(3-(2,3-Dihydro-1H-pyrrolo[2,3-b]pyridin-1-ylsulfonyl)phenyl)-N-hydroxyacrylamide] |  |
| < 6000 nM |  | O=C(/C=C/c1ccc(S(=O)(=O)n2ncc3ccccc32)cc1)NO [Compound 9, (E)-3-(4-(1H-Indazol-1-ylsulfonyl)phenyl)-N-hydroxyacrylamide] |  |
| < 6000 nM | 188 to 190 °C | O=C(/C=C/c1ccc(S(=O)(=O)n2ccc3ncccc32)cc1)NO [Compound 10, (E)-3-(4-(1H-Pyrrolo[3,2-b]pyridin-1-ylsulfonyl)phenyl)-N-hydroxyacrylamide] |  |
| < 6000 nM |  | COc1ccc(S(=O)(=O)N2CCc3cc(C(=O)NO)cnc32)cc1 [Compound 10a, N-hydroxy-1-(4-methoxyphenylsulfonyl)-2,3-dihydro-1H-pyrrolo[2,3-b]pyridine-5-carboxamide] |  |
| < 6000 nM | 167 to 169 °C | O=C(/C=C/c1ccc(S(=O)(=O)n2ccc3ccncc32)cc1)NO [Compound 11, (E)-3-(4-(1H-Pyrrolo[2,3-c]pyridin-1-ylsulfonyl)phenyl)-N-hydroxyacrylamide] |  |
|  | 169 to 170 °C | O=C(/C=C/c1ccc(S(=O)(=O)n2ccc3cccnc32)cc1)NO [Compound 12, (E)-3-(4-(1H-Pyrrolo[2,3-b]pyridin-1-ylsulfonyl)phenyl)-N-hydroxyacrylamide] |  |
| < 6000 nM | 220 to 223 °C | O=C(/C=C/c1ccc(S(=O)(=O)N2CCc3cccnc32)cc1)NO [Compound 13, (E)-3-(4-(2,3-Dihydro-1H-pyrrolo[2,3-b]pyridin-1-ylsulfonyl)phenyl)-N-hydroxyacrylamide] |  |
| < 6000 nM |  | Nc1ccccc1NC(=O)c1ccc(Cn2ccc3ccccc32)cc1 [Compound 14, 4-((1H-Indol-1-yl)methyl)-N-(2-aminophenyl)benzamide] |  |
| < 6000 nM |  | Nc1ccccc1NC(=O)c1ccc(CN2CCc3ccccc32)cc1 [Compound 15, N-(2-Aminophenyl)-4-(indolin-1-ylmethyl)benzamide] |  |
| < 6000 nM | 185 to 188 °C | Nc1ccccc1NC(=O)c1ccc(Cn2ncc3ccccc32)cc1 [Compound 16, 4-((1H-Indazol-1-yl)methyl)-N-(2-aminophenyl)benzamide] |  |
| < 6000 nM | 116 to 118 °C | Nc1ccccc1NC(=O)c1ccc(Cn2ccc3ncccc32)cc1 [Compound 17, 4-((1H-Pyrrolo[3,2-b]pyridin-1-yl)methyl)-N-(2-aminophenyl)-benzamide] |  |
| < 6000 nM | 165 to 167 °C | Nc1ccccc1NC(=O)c1ccc(Cn2ccc3cnccc32)cc1 [Compound 18, 4-((1H-Pyrrolo[3,2-c]pyridin-1-yl)methyl)-N-(2-aminophenyl)benzamide] |  |
| < 6000 nM | 154 to 155 °C | Nc1ccccc1NC(=O)c1ccc(Cn2ccc3ccncc32)cc1 [Compound 19, 4-((1H-Pyrrolo[2,3-c]pyridin-1-yl)methyl)-N-(2-aminophenyl)-benzamide] |  |
| < 6000 nM | 158 to 159 °C | Nc1ccccc1NC(=O)c1ccc(Cn2ccc3cccnc32)cc1 [Compound 20, 4-((1H-Pyrrolo[2,3-b]pyridin-1-yl)methyl)-N-(2-aminophenyl)benzamide] |  |
| < 6000 nM | 105 to 107 °C | Nc1ccccc1NC(=O)c1ccc(CN2CCc3cccnc32)cc1 [Compound 21, N-(2-Aminophenyl)-4-((2,3-dihydro-1H-pyrrolo[2,3-b]pyridin-1-yl)methyl)benzamide] |  |
| < 6000 nM |  | O=C(NO)c1ccc(Cn2ccc3cccnc32)cc1 [Compound 23, N-Hydroxy-4-pyrrolo[2,3-b]pyridin-1-ylmethyl-benzamide] |  |
|  |  | CC(=O)O[C@H]1C(=O)[C@@]2(C)[C@H]([C@H](OC(=O)c3ccccc3)[C@]3(O)C[C@H](OC(=O)[C@H](O)[C@@H](NC(=O)c4ccccc4)c4ccccc4)C(C)=C1C3(C)C)[C@]1(OC(C)=O)CO[C@@H]1C[C@@H]2O [Paclitaxel] | IC50 ([1]; read-out: 2D Culture): 0.2 ± 0.1 nM; IC50 [1, 5]: 0.2 ± 0.1 nM; IC50 [2, 6]: 5850 ± 70 nM; IC50 ([2]; read-out: 3D Culture): 5850 nM |
|  |  | O=C(CCCCCCC(=O)Nc1ccccc1)NO [SAHA, reference compound] | IC50 (KB-VIN10 (KB resistant)): 1850 ± 526 nM; IC50 [4]: 1540 ± 80 nM; induction of cell death (LDH) (C6 glioma cell line): about 70% |
|  |  | CC[C@]1(O)C[C@H]2CN(CCc3c([nH]c4ccccc34)[C@@](C(=O)OC)(c3cc4c(cc3OC)N(C=O)[C@H]3[C@@](O)(C(=O)OC)[C@H](OC(C)=O)[C@]5(CC)C=CCN6CC[C@]43[C@@H]65)C2)C1 [Vincristine] | IC50 ([1]; read-out: 2D Culture): 0.75 ± 0.64 nM; IC50 [1, 5]: 0.75 ± 0.64 nM; IC50 [2, 6]: 2.5 ± 0.71 nM; IC50 ([2]; read-out: 3D Culture): 2.5 ± 0.71 nM |
